In PMC10746543, “Design principles for cyclin K molecular glue degraders” (Nature Chemical Biology, 2023):
Where “and” joins values, the source holds several entries; their conditions need not be identical. Identical values can stand only once. Like-named read-outs stand apart in the source and are kept apart here.

Key:
[1] = molecular target: T1, CDK12 (Homo sapiens, UniProt Q16531+Q9NYV4); assay: Label-free quantitative mass spectrometry in MDA-MB-231 cells, CDK12; type: cell-based
T1 construct: endogenous in cells; host or cells: MDA-MB-231
T1 sequence (Q9NYV4 whole entry): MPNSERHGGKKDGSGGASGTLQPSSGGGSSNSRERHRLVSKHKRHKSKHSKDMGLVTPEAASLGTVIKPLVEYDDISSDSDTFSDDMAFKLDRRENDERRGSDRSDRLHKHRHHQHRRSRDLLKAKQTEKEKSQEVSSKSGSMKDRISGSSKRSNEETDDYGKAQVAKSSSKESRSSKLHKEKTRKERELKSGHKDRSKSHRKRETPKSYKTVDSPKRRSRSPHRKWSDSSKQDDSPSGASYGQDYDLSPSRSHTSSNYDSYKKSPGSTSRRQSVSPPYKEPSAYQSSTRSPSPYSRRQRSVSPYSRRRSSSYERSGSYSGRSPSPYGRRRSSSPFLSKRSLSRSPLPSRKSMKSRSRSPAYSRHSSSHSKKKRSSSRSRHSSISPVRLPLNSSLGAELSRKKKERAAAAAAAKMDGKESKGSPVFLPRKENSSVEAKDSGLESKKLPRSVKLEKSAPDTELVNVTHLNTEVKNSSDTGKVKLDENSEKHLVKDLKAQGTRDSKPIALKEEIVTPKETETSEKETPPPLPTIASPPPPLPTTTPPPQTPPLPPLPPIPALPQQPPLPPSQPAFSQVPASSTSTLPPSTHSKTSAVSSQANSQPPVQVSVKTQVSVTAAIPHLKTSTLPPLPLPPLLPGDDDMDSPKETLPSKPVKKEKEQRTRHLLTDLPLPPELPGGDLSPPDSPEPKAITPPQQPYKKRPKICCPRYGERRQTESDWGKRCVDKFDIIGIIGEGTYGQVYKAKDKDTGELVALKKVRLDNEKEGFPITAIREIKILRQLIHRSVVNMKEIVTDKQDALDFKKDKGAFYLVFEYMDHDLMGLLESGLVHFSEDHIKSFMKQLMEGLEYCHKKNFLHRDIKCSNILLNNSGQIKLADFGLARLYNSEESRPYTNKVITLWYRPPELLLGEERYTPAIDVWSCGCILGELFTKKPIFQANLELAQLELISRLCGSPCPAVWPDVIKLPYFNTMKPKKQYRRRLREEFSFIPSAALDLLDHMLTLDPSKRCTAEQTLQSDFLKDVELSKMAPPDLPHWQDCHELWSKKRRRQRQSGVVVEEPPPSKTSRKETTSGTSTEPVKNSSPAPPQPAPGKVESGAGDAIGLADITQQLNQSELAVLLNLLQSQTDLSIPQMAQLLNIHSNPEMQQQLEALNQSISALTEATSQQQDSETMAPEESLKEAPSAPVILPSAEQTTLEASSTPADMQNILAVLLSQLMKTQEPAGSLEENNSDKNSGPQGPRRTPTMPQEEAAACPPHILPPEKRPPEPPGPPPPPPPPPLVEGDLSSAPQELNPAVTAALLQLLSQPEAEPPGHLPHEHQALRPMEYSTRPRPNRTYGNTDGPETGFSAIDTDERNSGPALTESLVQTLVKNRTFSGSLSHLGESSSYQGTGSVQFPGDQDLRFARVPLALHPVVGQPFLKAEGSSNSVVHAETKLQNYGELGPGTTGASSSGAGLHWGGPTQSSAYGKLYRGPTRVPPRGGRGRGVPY
T1 sequence (O75909 whole entry partner): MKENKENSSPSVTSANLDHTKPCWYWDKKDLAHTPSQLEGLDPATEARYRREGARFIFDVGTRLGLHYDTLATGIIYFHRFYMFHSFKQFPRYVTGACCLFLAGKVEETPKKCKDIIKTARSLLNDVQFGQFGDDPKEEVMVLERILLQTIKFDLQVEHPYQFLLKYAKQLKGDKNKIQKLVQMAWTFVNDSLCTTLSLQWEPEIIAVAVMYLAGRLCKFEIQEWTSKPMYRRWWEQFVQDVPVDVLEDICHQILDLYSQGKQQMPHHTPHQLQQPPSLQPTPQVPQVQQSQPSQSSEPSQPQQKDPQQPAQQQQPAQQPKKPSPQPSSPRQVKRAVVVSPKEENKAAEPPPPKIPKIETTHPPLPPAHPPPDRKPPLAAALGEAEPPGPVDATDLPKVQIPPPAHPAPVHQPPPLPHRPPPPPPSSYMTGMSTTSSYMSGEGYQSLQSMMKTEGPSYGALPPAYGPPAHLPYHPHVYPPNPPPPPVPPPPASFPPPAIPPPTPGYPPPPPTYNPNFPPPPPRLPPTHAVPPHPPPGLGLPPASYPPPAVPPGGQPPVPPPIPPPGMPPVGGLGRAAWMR
T1 sequence (Q16531 2-1140 limits assumed): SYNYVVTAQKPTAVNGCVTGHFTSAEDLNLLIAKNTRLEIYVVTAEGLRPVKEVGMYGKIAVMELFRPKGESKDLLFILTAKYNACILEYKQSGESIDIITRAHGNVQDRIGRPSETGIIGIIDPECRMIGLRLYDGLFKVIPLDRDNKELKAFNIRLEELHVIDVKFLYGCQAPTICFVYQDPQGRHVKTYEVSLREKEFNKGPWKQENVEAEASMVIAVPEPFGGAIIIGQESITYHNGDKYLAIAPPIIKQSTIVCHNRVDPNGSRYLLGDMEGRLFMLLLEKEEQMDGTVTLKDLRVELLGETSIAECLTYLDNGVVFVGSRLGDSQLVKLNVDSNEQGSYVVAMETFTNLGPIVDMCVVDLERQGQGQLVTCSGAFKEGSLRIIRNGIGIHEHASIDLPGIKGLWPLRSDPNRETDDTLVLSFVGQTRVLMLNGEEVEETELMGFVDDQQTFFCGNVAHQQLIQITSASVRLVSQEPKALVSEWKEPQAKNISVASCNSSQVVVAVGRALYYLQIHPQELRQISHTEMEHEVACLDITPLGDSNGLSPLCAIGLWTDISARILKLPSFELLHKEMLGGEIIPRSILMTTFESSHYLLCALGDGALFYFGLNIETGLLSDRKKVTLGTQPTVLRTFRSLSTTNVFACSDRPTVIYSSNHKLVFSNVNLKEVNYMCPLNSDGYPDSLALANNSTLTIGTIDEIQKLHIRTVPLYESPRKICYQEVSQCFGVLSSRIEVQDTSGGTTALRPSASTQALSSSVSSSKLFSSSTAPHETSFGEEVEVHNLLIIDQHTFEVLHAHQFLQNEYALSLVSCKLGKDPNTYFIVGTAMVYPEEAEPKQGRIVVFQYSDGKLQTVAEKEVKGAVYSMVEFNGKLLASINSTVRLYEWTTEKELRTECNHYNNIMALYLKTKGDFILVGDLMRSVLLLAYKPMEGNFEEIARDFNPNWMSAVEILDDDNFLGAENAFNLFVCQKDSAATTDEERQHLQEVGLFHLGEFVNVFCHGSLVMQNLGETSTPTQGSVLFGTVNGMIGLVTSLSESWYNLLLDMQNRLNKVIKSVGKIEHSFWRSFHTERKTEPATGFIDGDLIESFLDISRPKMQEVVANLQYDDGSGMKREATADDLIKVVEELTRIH
Experimental: (§1) MDA-MB-231 cells were treated with DMSO or a cyclin K degrader compound at 1 µM for 5 h. Cells were collected by centrifugation and washed with phosphate-buffered saline before snap freezing in liquid nitrogen. Cells were lysed by addition of lysis buffer (8 M urea, 50 mM NaCl, 50 mM 4-(2-hydroxyethyl)-1-piperazineethanesulfonic acid (EPPS) pH 8.5, and protease and phosphatase inhibitors) and homogenization by bead beating (BioSpec) for three repeats of 30 s at 2,400 rpm. Bradford assay was used to determine the final protein concentration in the clarified cell lysate. Then 50 µg of protein for each sample was reduced, alkylated and precipitated using methanol/chloroform as previously described, and the resulting washed precipitated protein was allowed to air dry. Precipitated protein was resuspended in 4 M urea, 50 mM HEPES pH 7.4, followed by dilution to 1 M urea with the addition of 200 mM EPPS, pH 8. Proteins were first digested with LysC (1:50; enzyme:protein) for 12 h at room temperature. The LysC digestion was diluted to 0.5 M urea with 200 mM EPPS pH 8 followed by digestion with trypsin (1:50; enzyme:protein) for 6 h at 37 °C. Sample digests were acidified with formic acid to a pH of 2–3 before desalting using C18 solid phase extraction plates (SOLA, Thermo Fisher Scientific). Desalted peptides were dried in a vacuum-centrifuged and reconstituted in 0.1% formic acid for liquid chromatography–mass spectrometry analysis.
(§2) Data were collected using a TimsTOF Pro2 (Bruker Daltonics) coupled to a nanoElute LC pump (Bruker Daltonics) via a CaptiveSpray nano-electrospray source. Peptides were separated on a reversed-phase C18 column (25 cm × 75 µm inner diameter, […], IonOpticks) containing an integrated captive spray emitter. Peptides were separated using a 50 min gradient of 2–30% buffer B (acetonitrile in 0.1% formic acid) with a flow rate of 250 nl min^−1 and column temperature maintained at 50 °C.
(§3) Data-dependent acquisition (DDA) was performed in Parallel Accumulation-Serial Fragmentation (PASEF) mode to determine effective ion mobility windows for downstream diaPASEF data collection. The ddaPASEF parameters included: 100% duty cycle using accumulation and ramp times of 50 ms each, one Trapped Ion Mobility Spectrometry(TIMS)-MS scan and ten PASEF ramps per acquisition cycle. The TIMS-MS survey scan was acquired between 100 m/z and 1,700 m/z and 1/K0 of 0.7–1.3 V s cm^−2. Precursors with one to five charges were selected, and those that reached an intensity threshold of 20,000 arbitrary units were actively excluded for 0.4 min. The quadrupole isolation width was set to 2 m/z for m/z < 700 and 3 m/z for m/z > 800, with the m/z between 700 m/z and 800 m/z being interpolated linearly. […] To perform diaPASEF, the precursor distribution in the DDA m/z-ion mobility plane was used to design an acquisition scheme for data-independent acquisition (DIA) data collection that included two windows in each 50 ms diaPASEF scan. Data were acquired using 16 of these 25 Da precursor double window scans (creating 32 windows) that covered the diagonal scan line for doubly and triply charged precursors, with singly charged precursors able to be excluded by their position in the m/z-ion mobility plane. These precursor isolation windows were defined between 400 m/z and 1,200 m/z and 1/K0 of 0.7–1.3 V s cm^−2.
(§4) DirectDIA mode includes first extracting the DIA data into a collection of MS2 spectra which are searched using Spectronaut’s Pulsar search engine. The search results are then used to generate a spectral library which is then employed for the targeted analysis of the DIA data. MS/MS spectra were searched against a Swissprot human database (January 2021). Database search criteria largely followed the default settings for directDIA including: tryptic with two missed cleavages, fixed carbomidomethylation of cysteine, and variable oxidation of methionine and acetylation of protein N-termini and precursor Q-value (FDR) cut-off of 0.01. […]

[2] = molecular target: T2, CDK12–cyclin K and DDB1 (Homo sapiens, UniProt Q16531+Q9NYV4, K965R); assay: TR-FRET ternary complex formation assay (compound titration); type: binding; settings: for TR-FRET signal at compound concentration: replicate titrations
T2 construct: His6–CDK12 (a.a. 713–1,052); full-length or beta-propeller B domain deletion (ΔBPB: a.a. 396–705 deleted) constructs of His6–DDB1ΔBPB, StrepII–Avi–DDB1, or His6–Spy–DDB1; made in house; host or cells: Trichoplusia ni High Five insect cells (baculovirus)
T2 sequence (Q9NYV4 713-1052 K965R): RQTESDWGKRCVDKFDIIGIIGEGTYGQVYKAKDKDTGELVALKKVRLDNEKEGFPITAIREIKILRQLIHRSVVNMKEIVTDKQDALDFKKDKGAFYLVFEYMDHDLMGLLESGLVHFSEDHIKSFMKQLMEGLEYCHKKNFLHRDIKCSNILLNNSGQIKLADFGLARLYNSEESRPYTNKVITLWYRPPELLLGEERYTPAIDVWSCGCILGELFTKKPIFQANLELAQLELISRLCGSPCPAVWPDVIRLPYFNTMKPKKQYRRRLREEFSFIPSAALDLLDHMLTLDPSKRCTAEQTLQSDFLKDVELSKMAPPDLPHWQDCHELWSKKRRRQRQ
T2 sequence (O75909 1-267 partner): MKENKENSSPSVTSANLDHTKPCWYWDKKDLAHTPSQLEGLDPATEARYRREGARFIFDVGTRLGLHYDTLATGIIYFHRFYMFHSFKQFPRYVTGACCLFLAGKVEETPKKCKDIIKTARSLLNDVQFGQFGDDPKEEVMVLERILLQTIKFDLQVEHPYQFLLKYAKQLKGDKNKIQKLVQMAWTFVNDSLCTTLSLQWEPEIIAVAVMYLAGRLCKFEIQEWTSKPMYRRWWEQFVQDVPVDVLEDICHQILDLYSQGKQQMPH
T2 sequence (Q16531 whole entry): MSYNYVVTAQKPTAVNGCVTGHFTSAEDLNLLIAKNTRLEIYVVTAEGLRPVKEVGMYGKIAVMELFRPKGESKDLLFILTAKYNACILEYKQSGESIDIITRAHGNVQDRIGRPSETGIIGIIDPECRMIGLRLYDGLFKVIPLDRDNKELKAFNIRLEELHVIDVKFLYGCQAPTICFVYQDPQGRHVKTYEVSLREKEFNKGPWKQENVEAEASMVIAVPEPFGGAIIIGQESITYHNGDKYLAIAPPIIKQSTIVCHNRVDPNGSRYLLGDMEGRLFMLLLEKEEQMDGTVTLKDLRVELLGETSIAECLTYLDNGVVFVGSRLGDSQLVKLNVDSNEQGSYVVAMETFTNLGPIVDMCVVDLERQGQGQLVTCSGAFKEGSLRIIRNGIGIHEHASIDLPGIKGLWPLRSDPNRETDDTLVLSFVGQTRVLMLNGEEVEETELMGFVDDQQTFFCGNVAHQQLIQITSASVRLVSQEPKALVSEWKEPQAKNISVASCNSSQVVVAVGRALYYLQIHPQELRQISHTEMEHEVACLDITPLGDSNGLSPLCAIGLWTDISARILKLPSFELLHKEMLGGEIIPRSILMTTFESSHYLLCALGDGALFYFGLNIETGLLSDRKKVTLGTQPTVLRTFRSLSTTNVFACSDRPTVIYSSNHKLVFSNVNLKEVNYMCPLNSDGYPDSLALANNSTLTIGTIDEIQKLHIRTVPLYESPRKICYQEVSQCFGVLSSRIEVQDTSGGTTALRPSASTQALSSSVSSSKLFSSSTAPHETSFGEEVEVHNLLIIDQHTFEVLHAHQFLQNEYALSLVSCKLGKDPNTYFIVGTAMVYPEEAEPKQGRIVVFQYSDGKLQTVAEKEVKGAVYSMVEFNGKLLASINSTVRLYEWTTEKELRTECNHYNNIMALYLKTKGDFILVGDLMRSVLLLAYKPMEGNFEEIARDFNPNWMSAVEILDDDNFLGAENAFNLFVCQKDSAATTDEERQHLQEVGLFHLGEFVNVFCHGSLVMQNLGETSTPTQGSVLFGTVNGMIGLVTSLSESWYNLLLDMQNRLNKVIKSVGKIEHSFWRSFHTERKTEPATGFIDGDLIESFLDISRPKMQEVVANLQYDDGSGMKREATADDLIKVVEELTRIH
Method in brief: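 Delayed (70 μs) time-resolved read; FRET computed as 520 nm over 490 nm emission.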

[3] = system: HEK293T cells; assay: Drug sensitivity assay (CellTiter-Glo viability) with or without MLN4924 pretreatment; type: cell-based, human; settings: Supplementary Table 2
Method in brief: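 Viability of HEK293T–Cas9 cells was compared after 3-day drug treatment with or without 100 nM MLN4924 pretreatment (2 h, versus DMSO). Values are CellTiter-Glo signals relative to DMSO controls.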

[4] = molecular target: T3, CDK13 (Homo sapiens, UniProt Q14004+Q16531); assay: Label-free quantitative mass spectrometry in MDA-MB-231 cells, CDK13; type: cell-based
T3 construct: endogenous in cells; host or cells: MDA-MB-231
Experimental: as §1, §2, §3, §4

[5] = system: cyclin K–eGFP degradation reporter; assay: Cyclin K reporter stability analysis (dual-color cyclin K–eGFP reporter); type: cell-based, human; settings: source data sheet correlations; read-out: DC50
Method in brief: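 Cells (HEK293T–Cas9, reporter-expressing) at 1 × 10^6 ml^−1; 5 h compound or DMSO; flow cytometry; gMFI eGFP ÷ mCherry on round mCherry-positive events; normalized to 3 DMSO controls.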

[6] = system: cyclin K; assay: Label-free quantitative mass spectrometry in MDA-MB-231 cells, cyclin K; type: cell-based, human
Experimental: as §1, §2, §3, §4

[7] = label-free quantitative MS, replicate values
[8] = normalised to DMSO = 1, replicate values

CDK12 peptide count [1, 7]: 530.324 and 557.769 | CDK12 peptide count (DMSO-normalised) [1, 8]: 0.5892 and 0.5761 | TR-FRET signal at compound concentration ([2]; compound concentration 0.468 nM): 0.2538 and 0.2487 and 0.2092 | TR-FRET signal at compound concentration ([2]; compound concentration 2.16 nM): 0.3096 and 0.3093 and 0.2708 | TR-FRET signal at compound concentration ([2]; compound concentration 3.6 nM): 0.4411 and 0.4525 and 0.4039 | TR-FRET signal at compound concentration ([2]; compound concentration 7.92001 nM): 0.6962 and 0.7001 and 0.6519 | TR-FRET signal at compound concentration ([2]; compound concentration 15.84 nM): 1.209 and 1.183 and 1.188 | TR-FRET signal at compound concentration ([2]; compound concentration 30.96 nM): 1.971 and 1.9872 and 1.9274 | TR-FRET signal at compound concentration ([2]; compound concentration 62.6401 nM): 3.092 and 3.095 and 2.939 | TR-FRET signal at compound concentration ([2]; compound concentration 125.28 nM): 3.635 and 3.6 and 3.694 | TR-FRET signal at compound concentration ([2]; compound concentration 244.8 nM): 4.013 and 4.0411 | TR-FRET signal at compound concentration ([2]; compound concentration 993.601 nM): 3.909 and 4.092 and 4.233 | TR-FRET signal at compound concentration ([2]; compound concentration 2001.6 nM): 4.11 and 4.134 and 4.272 | EC50 ([2]; in vitro complex formation, 50 nM CDK12–cyclin K, 100 nM DDB1, text and figures, read-out: TR-FRET EC50): 35 ± 1 nM | EC50 ([2]; sheet MOESM7, read-out: log TR-FRET EC50 (converted)): 34.8 nM | EC50 ([2]; source data sheet correlations, read-out: TR-FRET EC50): 34.8 nM | CDK13 peptide count [4, 7]: 256.293 and 280.454 | CDK13 peptide count (DMSO-normalised) [4, 8]: 0.3813 and 0.431 | DC50 [5]: 78 nM
Structure (SMILES): CC[C@H](CO)Nc1nc(NCCCc2cccc(C)c2)c2ncn(C(C)C)c2n1 [DS30]
EC50 ([3]; Homo sapiens, HEK-293T, HEK293T viability, 72 h, compound alone, read-out: Cellular assays EC50): 451 nM | Toxicity rescue ([3]; MLN4924-mediated cytotoxicity rescue, 10 µM used where n.d.): 496% | cyclin K abundance (label-free MS) ([6]; individual replicates, sheet EDF7): 199.985 and 224.267 | cyclin K abundance (label-free MS) [6, 7]: 199.985 and 224.267 | CCNK peptide count (DMSO-normalised) [6, 8]: 0.1093 and 0.1247 | average CCNK peptide count ([6]; sheet EDF7): 212.126
